Experimental data reported in PubChem BioAssay (NCI).
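Cells were grown in 96-well plates and exposed to each compound for 48 hours at five concentrations; endpoints were interpolated linearly between bracketing concentrations, or set to the highest concentration if not reached. At the TGI there is no net growth.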

Assays:
Assay in all cases: inhibition of tumour cell growth, NCI panel, 48 h
[1] = tested on: 786-0 renal
[2] = tested on: A498 renal
[3] = tested on: A549 NSCLC
[4] = tested on: ACHN renal
[5] = tested on: BT-549 breast
[6] = tested on: CAKI-1 renal
[7] = tested on: CCRF-CEM leukemia
[8] = tested on: COLO 205 colon
[9] = tested on: DU-145 prostate
[10] = tested on: EKVX NSCLC
[11] = tested on: HCC-2998 colon
[12] = tested on: HCT-116 colon
[13] = tested on: HCT-15 colon
[14] = tested on: HL-60(TB) leukemia
[15] = tested on: HOP-62 NSCLC
[16] = tested on: HOP-92 NSCLC
[17] = tested on: HS 578T breast
[18] = tested on: HT29 colon
[19] = tested on: IGROV1 ovarian
[20] = tested on: K-562 leukemia
[21] = tested on: KM12 colon
[22] = tested on: LOX IMVI melanoma
[23] = tested on: M14 melanoma
[24] = tested on: MCF7 breast
[25] = tested on: MDA-MB-231 breast
[26] = tested on: MDA-MB-435
[27] = tested on: MDA-N
[28] = tested on: MOLT-4 leukemia
[29] = tested on: NCI-H226 lung
[30] = tested on: NCI-H23 lung
[31] = tested on: NCI-H460 lung
[32] = tested on: NCI-H522 lung
[33] = tested on: NCI/ADR-RES ovarian
[34] = tested on: OVCAR-3 ovarian
[35] = tested on: OVCAR-4 ovarian
[36] = tested on: OVCAR-5 ovarian
[37] = tested on: OVCAR-8 ovarian
[38] = tested on: PC-3 prostate
[39] = tested on: RPMI-8226 leukemia
[40] = tested on: RXF 393 renal
[41] = tested on: SF-268 CNS
[42] = tested on: SF-295 CNS
[43] = tested on: SF-539 CNS
[44] = tested on: SK-MEL-2 melanoma
[45] = tested on: SK-OV-3 ovarian
[46] = tested on: SN12C renal
[47] = tested on: SNB-19 CNS
[48] = tested on: SNB-75 CNS
[49] = tested on: SW-620 colon
[50] = tested on: T-47D breast
[51] = tested on: TK-10 renal
[52] = tested on: U251 CNS
[53] = tested on: UACC-257 melanoma
[54] = tested on: UACC-62 melanoma
[55] = tested on: UO-31 renal
[56] = tested on: MALME-3M melanoma
[57] = tested on: SK-MEL-28 melanoma
[58] = tested on: SK-MEL-5 melanoma

## CC1(C)CC(=O)C(/C=N/c2nc(-c3cccc([N+](=O)[O-])c3)cs2)=C(O)C1
[1]
  TGI: 29.9 µM
[2]
  TGI: 30.5 µM
[3]
  TGI: > 100 µM
[4]
  TGI: 33.8 µM
[5]
  TGI: 54 µM
[6]
  TGI: 23.4 µM
[7]
  TGI: 5.69 µM
[8]
  TGI: 30.9 µM
[9]
  TGI: > 100 µM
[10]
  TGI: 46.6 µM
[11]
  TGI: 29.1 µM
[12]
  TGI: 28.1 µM
[13]
  TGI: 23.8 µM
[14]
  TGI: > 100 µM
[15]
  TGI: 57.9 µM
[16]
  TGI: 39.6 µM
[17]
  TGI: 62.4 µM
[18]
  TGI: 30.7 µM
[19]
  TGI: 44.7 µM
[20]
  TGI: 52.6 µM
[21]
  TGI: > 100 µM
[22]
  TGI: 27.2 µM
[23]
  TGI: 38.2 µM
[24]
  TGI: 34 µM
[25]
  TGI: 43 µM
[26]
  TGI: 60.7 µM
[27]
  TGI: 36.5 µM
[28]
  TGI: > 100 µM
[29]
  TGI: 36.5 µM
[30]
  TGI: 37.3 µM
[31]
  TGI: 27.8 µM
[32]
  TGI: 23.7 µM
[33]
  TGI: 39.2 µM
[34]
  TGI: > 100 µM
[35]
  TGI: > 100 µM
[36]
  TGI: > 100 µM
[37]
  TGI: 96.2 µM
[38]
  TGI: > 100 µM
[39]
  TGI: 43.9 µM
[40]
  TGI: 46.9 µM
[41]
  TGI: 44.1 µM
[42]
  TGI: > 100 µM
[43]
  TGI: 45.6 µM
[44]
  TGI: > 100 µM
[45]
  TGI: > 100 µM
[46]
  TGI: 37.6 µM
[47]
  TGI: 46.9 µM
[48]
  TGI: 59.9 µM
[49]
  TGI: 25.6 µM
[50]
  TGI: 37.3 µM
[51]
  TGI: 92.5 µM
[52]
  TGI: 46.4 µM
[53]
  TGI: 49.7 µM
[54]
  TGI: 42.2 µM
[55]
  TGI: 74.9 µM

## Nc1nc(N)c(N=Nc2ccc([As](=O)(O)O)c(O)c2)c(N)n1
[1]
  TGI: > 100 µM
[2]
  TGI: > 100 µM
[3]
  TGI: > 100 µM
[4]
  TGI: > 100 µM
[5]
  TGI: > 100 µM
[6]
  TGI: > 100 µM
[7]
  TGI: > 19.7 µM
[8]
  TGI: > 100 µM
[9]
  TGI: 38.1 µM
[10]
  TGI: > 100 µM
[12]
  TGI: > 33.7 µM
[13]
  TGI: > 100 µM
[14]
  TGI: 13.2 µM
[15]
  TGI: > 100 µM
[16]
  TGI: > 100 µM
[17]
  TGI: > 77.3 µM
[18]
  TGI: > 100 µM
[19]
  TGI: > 100 µM
[20]
  TGI: > 100 µM
[21]
  TGI: > 100 µM
[22]
  TGI: > 100 µM
[23]
  TGI: > 100 µM
[56]
  TGI: > 100 µM
[24]
  TGI: > 100 µM
[25]
  TGI: > 100 µM
[26]
  TGI: 6.37 µM
[27]
  TGI: 5.29 µM
[28]
  TGI: > 48.3 µM
[29]
  TGI: > 100 µM
[30]
  TGI: > 100 µM
[31]
  TGI: > 28.1 µM
[32]
  TGI: > 31 µM
[33]
  TGI: > 100 µM
[34]
  TGI: > 64.2 µM
[35]
  TGI: > 100 µM
[36]
  TGI: > 100 µM
[37]
  TGI: > 100 µM
[38]
  TGI: > 100 µM
[39]
  TGI: > 33.8 µM
[40]
  TGI: > 29.8 µM
[41]
  TGI: > 100 µM
[42]
  TGI: > 100 µM
[43]
  TGI: > 56.8 µM
[44]
  TGI: > 59.9 µM
[57]
  TGI: > 100 µM
[58]
  TGI: > 100 µM
[45]
  TGI: > 100 µM
[46]
  TGI: > 26.8 µM
[47]
  TGI: > 100 µM
[48]
  TGI: > 89.5 µM
[49]
  TGI: > 100 µM
[50]
  TGI: > 100 µM
[51]
  TGI: > 51.8 µM
[52]
  TGI: > 100 µM
[53]
  TGI: > 100 µM
[54]
  TGI: > 100 µM
[55]
  TGI: > 100 µM

## COc1ccc([C@H]2C=C(c3cc(F)c(Cl)cc3Cl)N=c3s/c(=C\c4ccc(-c5ccc(Cl)cc5Cl)o4)c(=O)n32)cc1
[1]
  TGI: > 100 µM
[2]
  TGI: 6.58 µM
[3]
  TGI: > 100 µM
[4]
  TGI: > 100 µM
[5]
  TGI: > 100 µM
[6]
  TGI: > 100 µM
[8]
  TGI: > 100 µM
[9]
  TGI: > 100 µM
[11]
  TGI: 47.8 µM
[12]
  TGI: > 100 µM
[13]
  TGI: > 100 µM
[15]
  TGI: 45.3 µM
[16]
  TGI: > 100 µM
[17]
  TGI: > 100 µM
[18]
  TGI: > 100 µM
[19]
  TGI: > 100 µM
[20]
  TGI: > 100 µM
[21]
  TGI: > 100 µM
[22]
  TGI: > 100 µM
[23]
  TGI: > 100 µM
[56]
  TGI: > 100 µM
[24]
  TGI: > 100 µM
[25]
  TGI: 70.2 µM
[26]
  TGI: > 100 µM
[27]
  TGI: > 100 µM
[28]
  TGI: > 100 µM
[29]
  TGI: > 100 µM
[30]
  TGI: > 100 µM
[31]
  TGI: > 100 µM
[32]
  TGI: > 100 µM
[33]
  TGI: > 100 µM
[35]
  TGI: > 100 µM
[36]
  TGI: > 100 µM
[37]
  TGI: > 100 µM
[38]
  TGI: > 100 µM
[39]
  TGI: > 100 µM
[40]
  TGI: > 100 µM
[41]
  TGI: > 100 µM
[42]
  TGI: > 100 µM
[43]
  TGI: > 100 µM
[44]
  TGI: 48.3 µM
[57]
  TGI: > 100 µM
[58]
  TGI: > 100 µM
[45]
  TGI: 65.2 µM
[46]
  TGI: > 100 µM
[47]
  TGI: > 100 µM
[48]
  TGI: > 100 µM
[49]
  TGI: > 100 µM
[50]
  TGI: > 100 µM
[51]
  TGI: > 100 µM
[52]
  TGI: > 100 µM
[53]
  TGI: > 100 µM
[54]
  TGI: > 100 µM
[55]
  TGI: > 100 µM
